Results as given in ChEMBL document CHEMBL1201862, “PubChem BioAssay data set” (2004).
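Step 1: Grow cells in 96-well plates. Step 2: Expose to compound for 48 hours at 5 concentrations. Step 3: Interpolate endpoints linearly; if unreached, use highest concentration. GI50: concentration for 50% inhibition of growth.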 The source made the active and inactive calls. Rule as the data show it: active = GI50 up to about 1.1 µM and inactive = higher.

Experiments:
Experiment in all cases: inhibition of tumour cell growth, NCI panel, 48 h
ACHN = system: ACHN
CAKI-1 = system: CAKI-1
DU-145 = system: DU-145
HCT-116 = system: HCT-116
HT-29 = system: HT-29
IGROV-1 = system: IGROV-1
K562 = system: K562
MDA-MB-435 = system: MDA-MB-435
NCI-H23 = system: NCI-H23
NCI-H460 = system: NCI-H460
NCI-H522 = system: NCI-H522
NCI/ADR-RES = system: NCI/ADR-RES
OVCAR-4 = system: OVCAR-4
OVCAR-5 = system: OVCAR-5
SNB-19 = system: SNB-19
T47D = system: T47D
U-251 = system: U-251
UACC-62 = system: UACC-62
UO-31 = system: UO-31

| SMILES | GI50 (ACHN) | GI50 (CAKI-1) | GI50 (DU-145) | GI50 (HCT-116) | GI50 (HT-29) | GI50 (IGROV-1) | GI50 (K562) | GI50 (MDA-MB-435) | GI50 (NCI-H23) | GI50 (NCI-H460) | GI50 (NCI-H522) | GI50 (NCI/ADR-RES) | GI50 (OVCAR-4) | GI50 (OVCAR-5) | GI50 (SNB-19) | GI50 (T47D) | GI50 (U-251) | GI50 (UACC-62) | GI50 (UO-31) |
| --- | --- | --- | --- | --- | --- | --- | --- | --- | --- | --- | --- | --- | --- | --- | --- | --- | --- | --- | --- |
| CN(CCNC(=O)c1nn(C)c2c1Cc1ccccc1-2)CCNC(=O)c1nn(C)c2c1Cc1ccccc1-2 | 14.5 µM (inactive) | 18.4 µM (inactive) | 17.9 µM (inactive) | 15.1 µM (inactive) | 14 µM (inactive) | 8.55 µM (inactive) | 12.7 µM (inactive) | 15.2 µM (inactive) | 15.4 µM (inactive) | 16.4 µM (inactive) | 16.2 µM (inactive) | 21.4 µM (inactive) | 17.6 µM (inactive) | 26.8 µM (inactive) | 15.6 µM (inactive) | 22.5 µM (inactive) | 15.6 µM (inactive) | 15.2 µM (inactive) | 10.4 µM (inactive) |
| CC(O)CC(O)(C(F)(F)F)C(F)(F)F (stereo unspecified) | > 10 µM (inactive) | > 10 µM (inactive) | > 10 µM (inactive) | > 10 µM (inactive) | > 10 µM (inactive) | > 10 µM (inactive) | > 10 µM (inactive) | > 10 µM (inactive) | > 10 µM (inactive) | > 10 µM (inactive) | > 10 µM (inactive) | > 10 µM (inactive) | > 10 µM (inactive) | – | > 10 µM (inactive) | > 10 µM (inactive) | > 10 µM (inactive) | > 10 µM (inactive) | > 10 µM (inactive) |
| COC(=O)C(CCC1C=CCC1)/N=C\c1ccccc1 (stereo unspecified) | 73.5 µM (inactive) | 50.2 µM (inactive) | 97.9 µM (inactive) | 31.3 µM (inactive) | 50 µM (inactive) | > 100 µM (inactive) | 47.2 µM (inactive) | 60.3 µM (inactive) | 52.6 µM (inactive) | 44 µM (inactive) | 54.2 µM (inactive) | 26.9 µM (inactive) | 54.7 µM (inactive) | > 100 µM (inactive) | 79.1 µM (inactive) | 47.4 µM (inactive) | 52.1 µM (inactive) | 74.8 µM (inactive) | 51.9 µM (inactive) |
| O=[N+]([O-])c1cc(Br)cc2cc(Cl)cnc12 | > 100 µM (inactive) | > 100 µM (inactive) | > 100 µM (inactive) | > 100 µM (inactive) | > 100 µM (inactive) | 10.1 µM (inactive) | > 100 µM (inactive) | > 100 µM (inactive) | > 100 µM (inactive) | > 100 µM (inactive) | > 100 µM (inactive) | > 100 µM (inactive) | > 100 µM (inactive) | > 100 µM (inactive) | > 100 µM (inactive) | 39.8 µM (inactive) | > 100 µM (inactive) | 61.4 µM (inactive) | > 100 µM (inactive) |
| CCCCCCCCCCCCCCC(C(=O)[O-])[n+]1ccccc1 (stereo unspecified) | > 100 µM (inactive) | > 100 µM (inactive) | > 100 µM (inactive) | > 100 µM (inactive) | > 100 µM (inactive) | > 100 µM (inactive) | > 100 µM (inactive) | > 100 µM (inactive) | > 100 µM (inactive) | > 100 µM (inactive) | > 100 µM (inactive) | > 100 µM (inactive) | > 100 µM (inactive) | 84.1 µM (inactive) | > 100 µM (inactive) | > 100 µM (inactive) | 28.6 µM (inactive) | 77.3 µM (inactive) | > 100 µM (inactive) |
| Cc1cccc(-c2cc(O)c3c(C)ccnc3n2)c1 | 0.601 µM (active) | 0.39 µM (active) | 1.05 µM (active) | 0.355 µM (active) | 0.339 µM (active) | 0.681 µM (active) | 0.139 µM (active) | 0.0463 µM (active) | 1.17 µM (inactive) | 0.363 µM (active) | 0.247 µM (active) | 0.255 µM (active) | 8.41 µM (inactive) | 1.19 µM (inactive) | 0.447 µM (active) | 0.826 µM (active) | 0.407 µM (active) | 0.461 µM (active) | – |
| CN(/N=C(\C(=O)O)c1ccccc1)C1=NCCCN1 | > 100 µM (inactive) | > 100 µM (inactive) | > 100 µM (inactive) | > 100 µM (inactive) | > 100 µM (inactive) | > 100 µM (inactive) | > 100 µM (inactive) | > 100 µM (inactive) | > 100 µM (inactive) | > 100 µM (inactive) | > 100 µM (inactive) | > 100 µM (inactive) | > 100 µM (inactive) | > 100 µM (inactive) | – | > 100 µM (inactive) | > 100 µM (inactive) | > 100 µM (inactive) | > 100 µM (inactive) |
| CC(C)(CC#N)c1cc(CC(C)(C)c2cc(CC(C)(C)c3cc(C(C)(C)C4(C)OCCO4)no3)no2)no1 | 35.5 µM (inactive) | 22.4 µM (inactive) | 50.4 µM (inactive) | 51.4 µM (inactive) | > 100 µM (inactive) | 54.1 µM (inactive) | > 100 µM (inactive) | > 100 µM (inactive) | > 100 µM (inactive) | – | 24.6 µM (inactive) | 47.2 µM (inactive) | 23.5 µM (inactive) | > 100 µM (inactive) | 21.8 µM (inactive) | 9.08 µM (inactive) | 39.8 µM (inactive) | 41.9 µM (inactive) | > 100 µM (inactive) |
| C=C[C@H]1CN2CCc3c([nH]c4cc(O)ccc34)[C@@H]2C[C@@H]1C[C@H]1c2[nH]c3ccccc3c2CCN1C | 5.28 µM (inactive) | 6.04 µM (inactive) | 15.6 µM (inactive) | 2.42 µM (inactive) | 2.48 µM (inactive) | 1.85 µM (inactive) | 2.78 µM (inactive) | 2.01 µM (inactive) | 16 µM (inactive) | 2.07 µM (inactive) | 2.99 µM (inactive) | 9.06 µM (inactive) | 7.03 µM (inactive) | 17 µM (inactive) | 6.67 µM (inactive) | 15.6 µM (inactive) | 1.77 µM (inactive) | 4.19 µM (inactive) | 2.09 µM (inactive) |
| CC(C)(C)c1cc(C2NCCO2)cc(C(C)(C)C)c1O (stereo unspecified) | > 100 µM (inactive) | 45.9 µM (inactive) | > 100 µM (inactive) | > 100 µM (inactive) | > 100 µM (inactive) | 96.6 µM (inactive) | > 100 µM (inactive) | > 100 µM (inactive) | 51.4 µM (inactive) | > 100 µM (inactive) | > 100 µM (inactive) | > 100 µM (inactive) | > 100 µM (inactive) | > 100 µM (inactive) | – | 0.0538 µM (active) | 37.1 µM (inactive) | > 100 µM (inactive) | – |
| NS(=O)(=O)c1nnc(NC(=O)c2cccc([N+](=O)[O-])c2)s1 | > 100 µM (inactive) | > 100 µM (inactive) | > 100 µM (inactive) | > 100 µM (inactive) | – | – | > 100 µM (inactive) | > 100 µM (inactive) | > 100 µM (inactive) | > 100 µM (inactive) | > 100 µM (inactive) | > 100 µM (inactive) | > 100 µM (inactive) | > 100 µM (inactive) | > 100 µM (inactive) | > 100 µM (inactive) | > 100 µM (inactive) | > 100 µM (inactive) | > 100 µM (inactive) |
| COC(=O)c1cc(C#N)[nH]c1-c1ccc(C)s1 | 41.3 µM (inactive) | 41.9 µM (inactive) | 30.6 µM (inactive) | > 100 µM (inactive) | – | – | > 100 µM (inactive) | 91.4 µM (inactive) | 34 µM (inactive) | 82.2 µM (inactive) | 36.1 µM (inactive) | 31.1 µM (inactive) | 76.2 µM (inactive) | 47.5 µM (inactive) | > 100 µM (inactive) | 25.6 µM (inactive) | 95.5 µM (inactive) | 51.3 µM (inactive) | 42.9 µM (inactive) |
| C/C(=N\NC(=S)N(C)C)c1nc2cccnc2[nH]1 | 0.618 µM (active) | 0.501 µM (active) | 0.504 µM (active) | 0.893 µM (active) | 0.548 µM (active) | 0.804 µM (active) | 2.16 µM (inactive) | 0.762 µM (active) | – | 0.478 µM (active) | 1.53 µM (inactive) | 0.449 µM (active) | 0.499 µM (active) | 0.504 µM (active) | 1.02 µM (active) | 0.475 µM (active) | 0.494 µM (active) | 0.396 µM (active) | 0.348 µM (active) |
| CC(C)(CCC(C)(C)N1OC1c1ccccc1)N1OC1c1ccccc1 (stereo unspecified) | 19.8 µM (inactive) | 23.4 µM (inactive) | 88.7 µM (inactive) | 56.8 µM (inactive) | 54.7 µM (inactive) | – | 13.4 µM (inactive) | 32.8 µM (inactive) | 55.3 µM (inactive) | 33 µM (inactive) | 7.16 µM (inactive) | 58.6 µM (inactive) | 86.3 µM (inactive) | – | 47.5 µM (inactive) | 41.1 µM (inactive) | 72.9 µM (inactive) | > 100 µM (inactive) | 20 µM (inactive) |
| COc1ccc(N)c(C(=O)CCNC(C)=O)c1 [KINURENAMINE] | > 100 µM (inactive) | > 100 µM (inactive) | > 100 µM (inactive) | > 100 µM (inactive) | > 100 µM (inactive) | > 100 µM (inactive) | – | > 100 µM (inactive) | > 100 µM (inactive) | > 100 µM (inactive) | > 100 µM (inactive) | > 100 µM (inactive) | > 100 µM (inactive) | > 100 µM (inactive) | > 100 µM (inactive) | > 100 µM (inactive) | > 100 µM (inactive) | > 100 µM (inactive) | > 100 µM (inactive) |
